Measured values published in patent US12679877B2, “NPRA agonists, compositions, and uses thereof” (PharmaIn Corporation, priority 2017, dated 2026).
Marks after values point to notes of the source that are not given here. No end group written: not given here. *: point of attachment. CH3(CH2)22CO = C24 acyl (CH3(CH2)22CO-), CCCCCCCCCCCCCCCCCCCCCCCC(=O)*; Docosanoyl = CCCCCCCCCCCCCCCCCCCCCC(=O)*; Stearoyl = CCCCCCCCCCCCCCCCCC(=O)*

Assays:
[1] = Plasma ANP level by ELISA after s.c. ANP in the same study; format: in vivo, Balb/c mice; conditions: ANP 12 mg/Kg s.c., injection at 0 hour and 6 hours; average of all groups with same dose; value (SEM)
Procedure: An investigation was carried out to determine whether prolonged presence of ANP in the blood would have a sustained pharmacodynamic effect, reflected by elevation of cGMP blood concentration, and to determine whether that elevation would be proportional to the level of ANP. The level of blood cGMP relative to ANP was determined. […] This problem had not been documented in literature and there was no reason to solve this previously unknown problem. […] For this study, 4 groups of Balb/c mice (n=3/group; female, 5-6 weeks old; 18-25 g) were used and the cGMP levels at various time points after ANP administration with and without 2nd ANP administration were evaluated. […] Two subsequent s.c. (subcutaneous) administrations of the ANP formulated in a polymeric excipient (to increase in vivo stability) were evaluated. […] The plasma samples were analyzed for cGMP using the cGMP ELISA kit (GE Healthcare Life Sciences, Marlborough, MA) according to manufacturer's protocol. […] The level of ANP associated with cGMP was also measured to further confirm receptor depletion was the result of lack of responsiveness if any. The associated level of ANP was measured using an ELISA assay kit (GE Healthcare Life Sciences, Marlborough, MA) according to manufacturer's protocol. […]

[2] = test system: natriuretic peptide receptors (NPRA or NPRB); test: 2-point blood cGMP evaluation (2 and 6 hours) after 15 mg/Kg s.c., cGMP Direct Biotrak EIA; format: in vivo, CD-1 mice; conditions: for In vivo blood cGMP minus baseline, 2 hour (potency) / In vivo blood cGMP minus baseline, 6 hour (receptor depletion): 15 mg/Kg s.c. in mice (n=3), minus baseline 30 pmol/ml (n=12); for In vivo blood cGMP minus baseline, 2 hour (potency): 2 hours after dosing; for In vivo blood cGMP minus baseline, 6 hour (receptor depletion): 6 hours after dosing; for activity / potency compared to ANP, in words (2 hour data in Table 2): 15 mg/Kg s.c. in mice, blood cGMP
Procedure: Various derivatives of ANP were made and screened for increase in vivo potency while limiting the apparent receptor depletion effects (or perhaps can act on another cGMP enhancing receptors) by looking at the level of blood cGMP at specific time points. […] Various derivatives were made and tested in vivo to determine the level of blood cGMP at 2 hours and 6 hours after subcutaneous administration of 15 mg/Kg in mice (which was allometrically equivalent to human dose of 1.5 mg/Kg) with the goal of finding derivatives that were therapeutically useful for increasing blood cGMP.
For 2-point cGMP evaluation of various derivatives, test samples were dissolved in water (Lonza, Wakersville, MD) before being lyophilized. Prior to use, the lyophilized test sample was dissolved in saline then 15 mg/Kg was injected subcutaneously into female CD-1 mice 6-8 weeks (n=3). Blood samples were collected at 2 and 6 hours with K2EDTA blood collection tube. The collection tube was then centrifuged at 13,000 rpm for 10 minutes at 4° C. to separate plasma. The plasma was analyzed using the cGMP Direct Biotrak EIA (GE Healthcare Life Sciences, Marlborough, MA). Note that by using allometric scaling at exponent of 0.7 [dose in other species=mice dose/((mouse weight/weight of average other species)^0.7)], the 15 mg/Kg in mice is equivalent to about 7.5 mg/Kg rat dose, about 2.5 mg/Kg dog dose, and 1.5 mg/Kg human dose. For the purpose the present disclosure, the 15 mg/Kg in mice as presented in the relevant data examples, should be understood as equivalent to about 7.5 mg/Kg rat dose, which is equivalent to about 2.5 mg/Kg dog dose, which is equivalent to about 1.5 mg/Kg human dose. Because the mice cGMP response to 15 mg/Kg dose of the newly discovered derivatives (see Table 2) was quite high, it would be prudent to use daily doses that are lower than 15 mg/Kg for mice, 7.5 mg/Kg for rat, 2.5 mg/Kg for dog, and 1.5 mg/Kg for human since any higher dose may result in too much increase in cGMP that can result in too much or even dangerous drop in blood pressure unless formulated in a very slow release delivery system. In fact based on cGMP response it was more preferable to use daily doses that are lower than […], 1.5 mg/Kg for rat, 0.5 mg/Kg for dog, and 0.3 mg/Kg for human. Additionally, the level of blood cGMP is preferably between 1.5 to 3-times of the normal baseline level. The blood or plasma cGMP normal baseline level was about 20-50 pmol/ml but could vary slightly depending on the assay kit used to measure the level.

Compound | 2 hrs. ANP level [1] | In vivo blood cGMP minus baseline, 2 hour (potency) [2] [nM] | In vivo blood cGMP minus baseline, 6 hour (receptor depletion) [2] [pmol/mL] | activity / potency compared to ANP, in words (2 hour data in Table 2) [2]
CC[C@H](C)[C@@H]1NC(=O)[C@H](CCCNC(=N)N)NC(=O)[C@H](CC(=O)O)NC(=O)[C@H](CCSC)NC(=O)[C@H](CCCNC(=N)N)NC(=O)CNC(=O)CNC(=O)[C@H](Cc2ccccc2)NC(=O)[C@@H](NC(=O)[C@H](CO)NC(=O)[C@H](CO)NC(=O)[C@H](CCCNC(=N)N)NC(=O)[C@H](CCCNC(=N)N)NC(=O)[C@H](CC(C)C)NC(=O)[C@@H](N)CO)CSSC[C@@H](C(=O)N[C@@H](CC(N)=O)C(=O)N[C@@H](CO)C(=O)N[C@@H](Cc2ccccc2)C(=O)N[C@@H](CCCNC(=N)N)C(=O)N[C@@H](Cc2ccc(O)cc2)C(=O)O)NC(=O)CNC(=O)[C@H](CC(C)C)NC(=O)CNC(=O)[C@H](CO)NC(=O)[C@H](CCC(N)=O)NC(=O)[C@H](C)NC(=O)CNC1=O [SEQ ID NO. 1] | 67.24 (6.92)* ng/ml | – | – | –
CH3(CH2)16COKKKKGGGGLSKGCFGLKLDRIGSMSGLGC (Stearoyl-KKKKGGGGLSKGCFGLKLDRIGSMSGLGC; not fully specified (bridges); printed as CH3(CH2)16COKKKKGGGGLSKGCFGLKLDRIGSMSG; cysteine pairing not given here; listed as Homo Sapiens) [SEQ ID NO. 72] | – | 544.99 | 368.29 | increased potency
CH3(CH2)20COKKKKGGGSLRRSSCFGGRMDRIGAQSGLGCNSFRY (Docosanoyl-KKKKGGGSLRRSSCFGGRMDRIGAQSGLGCNSFRY; not fully specified (bridges); printed as CH3(CH2)20COKKKKGGGSLRRSSCFGGRMDRIGAQSGLGCNSFRY; cysteine pairing not given here; listed as Homo Sapiens) [SEQ ID NO. 94] | – | 263.8 | 255.4 | –
CH3(CH2)22COKKKKGGGGLSKGCFGLKLDRIGSMSGLGC ({CH3(CH2)22CO}-KKKKGGGGLSKGCFGLKLDRIGSMSGLGC; not fully specified (bridges); printed as CH3(CH2)22COKKKKGGGGLSKGCFGLKLDRIGSMSGLGC; cysteine pairing not given here; listed as Homo Sapiens) [SEQ ID NO. 122] | – | 251.92 | 209.24 | –
CH3(CH2)22COKKKKGGGSLRRSSCFGGRMDRIGAQSGLGCNSFRY ({CH3(CH2)22CO}-KKKKGGGSLRRSSCFGGRMDRIGAQSGLGCNSFRY; not fully specified (bridges); printed as CH3(CH2)22COKKKKGGGSLRRSSCFGGRMDRIGAQSGLGCNSFRY; cysteine pairing not given here; listed as Homo Sapiens) [SEQ ID NO. 95] | – | 260.8 | 245.6 | –
GGGGLSKGCFGLKLDRIGSMSGLGC (listed as Homo Sapiens) [SEQ ID NO. 60] | – | 49.98 | 16.85 | no loss activity compared to ANP
GGGSLRRSSCFGGRMDRIGAQSGLGCNSFRY (listed as Homo Sapiens) [SEQ ID NO. 4] | – | 41.66 | -11.79 | –
GGLSKGCFGLKLDRIGSMSGLGC (listed as Homo Sapiens) [SEQ ID NO. 58] | – | 27.09 | 5.10 | no loss activity compared to ANP
GGSLRRSSCFGGRMDRIGAQSGLGCNSFRY (listed as Homo Sapiens) [SEQ ID NO. 3] | – | 46.79 | 0.16 | –
GLSKGCFGLKLDRIGSMSGLGC [SEQ ID NO. 57, reference compound] | – | 93.75 | 24.55 | –
GSLRRSSCFGGRMDRIGAQSGLGCNSFRY (listed as Homo Sapiens) [SEQ ID NO. 2] | – | 44.08 | -13.85 | –
KGGGSLRRSSCFGGRMDRIGAQSGLGCNSFRY (listed as Homo Sapiens) [SEQ ID NO. 5] | – | 59.96 | 44.34 | –
KKGGGSLRRSSCFGGRMDRIGAQSGLGCNSFRY (listed as Homo Sapiens) [SEQ ID NO. 6] | – | 28.6 | -4.81 | –
KKKGGGSLRRSSCFGGRMDRIGAQSGLGCNSFRY (listed as Homo Sapiens) [SEQ ID NO. 7] | – | 23.40 | -1.19 | –
KKKKGGGSLRRSSCFGGRMDRIGAQSGLGCNSFRY (listed as Homo Sapiens) [SEQ ID NO. 8] | – | 53.00 | 15.25 | –
